Reference: patent US6504005B1, “Long-acting drugs and pharmaceutical compositions comprising them” (Yeda Research and Development Co. Ltd., priority 1996, dated 2003)
pIC50: −log10 of the molar value. Several values for one entry are separate records, joined by “and”; a condition that tells them apart may be missing. Equal entries are not always repeated. Where two headings read alike, the source gives them in different places.

What was measured:
Staphylococcus aureus = conditions: relative to cephalexin control
Description: At the indicated time points, aliquots were withdrawn and analyzed for their potency to arrest growth of Staphylococcus aureus. Bacterial growth was then evaluated by increased turbidity measured spectroscopically at 700 nm.

intact rat adipocytes = assay type: cell-based; conditions: for Activity following incubation at pH 8.5, 37° C. (%), 9 hrs: 9 hrs at pH 8.5, 37° C.; for Activity following incubation at pH 8.5, 37° C. (%), 20 hrs: 20 hrs at pH 8.5, 37° C.; for Activity following incubation at pH 8.5, 37° C. (%), 45 hrs: 45 hrs at pH 8.5, 37° C.
Description: (iii) Lipogenesis (Incorporation of Labeled Glucose into the Lipids of Intact Adipocytes) Rat adipocytes were prepared essentially by the method of Rodbell, 1964. The fat pads of male Wistar rats were cut into small pieces with scissors and suspended in 3 ml of KRB buffer containing NaCl, 110 mM; NaHCO3, 25 mM; Kcl, 5 mM; […] CaCl2, 1.3 mM; […] Five milliliters of buffer was then added, and the cells were passed through a mesh screen. The cells were then allowed to stand for several minutes in a 15 ml plastic test tube at room temperature, floating, and the buffer underneath was removed. This procedure (suspension, floating, and removal of buffer underneath) was repeated three times. […] Lipogenesis was terminated by adding toluene-based scintillation fluid (1.0 ml per vial) and the radioactivity in extracted lipids was counted (Moody et al., 1974).

normal rats = assay: Single intraperitoneal administration to normal rats, blood glucose levels; assay type: in vivo; conditions: single i.p. injection, 3 mg/rat
Description: This assay reflects the post-subcutaneous long-acting feature of insulin (or insulin derivatives) within the circulation. Normal rats received a single intraperitoneal injection of native insulin, NPH-insulin and (Fmoc)2-insulin (3 mg/rat), and their blood glucose levels were monitored over a period of three days.
Blood glucose levels were followed for two days.

[1] = Conversion of Fmoc-hGH to native hGH upon incubation (analytical HPLC); assay type: physicochemical; conditions: pH 8.5, 37° C.
Description: Conversion of Fmoc-hGH to native hGH was evaluated by the increase in peak area corresponding to native hGH.

hGH receptor = assay: Displacement of iodinated hGH (receptor binding assay)
Description: Incubation of Fmoc-hGH at pH 8.5 (37° C.) for about 6 days or at pH 10.5 (37° C.) for four days yielded fully active, native hGH, as judged by HPLC analysis and by receptor binding assays.

[2] = Solubility and appearance in aqueous buffer (pH 7.4)
[3] = target: insulin receptor tyrosine kinase (Rattus norvegicus, UniProt P15127); assay: Insulin receptor tyrosine kinase activity, [poly(Glu4Tyr)] phosphorylating assay (cell-free); conditions: for Biological potency following incubation (2 days, 37° C., pH 8.5): after 2 days; for Biological potency (%): of native insulin potency, before incubation, [poly(Glu4Tyr)] phosphorylating assay
Sequence of insulin receptor tyrosine kinase (P15127 27-759 limits assumed): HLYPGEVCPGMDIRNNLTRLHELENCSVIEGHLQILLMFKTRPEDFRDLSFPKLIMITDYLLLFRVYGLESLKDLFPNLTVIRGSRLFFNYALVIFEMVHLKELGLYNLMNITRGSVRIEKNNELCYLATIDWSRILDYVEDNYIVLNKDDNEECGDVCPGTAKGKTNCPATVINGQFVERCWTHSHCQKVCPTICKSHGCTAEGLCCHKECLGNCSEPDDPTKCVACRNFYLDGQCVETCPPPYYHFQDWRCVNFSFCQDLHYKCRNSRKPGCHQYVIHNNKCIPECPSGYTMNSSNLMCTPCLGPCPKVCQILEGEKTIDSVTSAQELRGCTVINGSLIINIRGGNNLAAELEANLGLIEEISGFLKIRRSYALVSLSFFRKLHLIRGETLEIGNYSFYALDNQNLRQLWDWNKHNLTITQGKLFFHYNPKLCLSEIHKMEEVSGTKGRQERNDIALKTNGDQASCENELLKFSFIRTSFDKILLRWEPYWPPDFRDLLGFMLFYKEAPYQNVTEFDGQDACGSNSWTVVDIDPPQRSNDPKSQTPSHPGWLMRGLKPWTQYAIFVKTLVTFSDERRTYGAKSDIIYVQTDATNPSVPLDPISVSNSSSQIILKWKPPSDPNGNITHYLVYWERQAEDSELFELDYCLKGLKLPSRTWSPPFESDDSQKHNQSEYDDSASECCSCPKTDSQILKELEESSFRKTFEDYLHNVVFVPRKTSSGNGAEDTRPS
Sequence of insulin receptor tyrosine kinase (P15127 764-1383 partner limits assumed): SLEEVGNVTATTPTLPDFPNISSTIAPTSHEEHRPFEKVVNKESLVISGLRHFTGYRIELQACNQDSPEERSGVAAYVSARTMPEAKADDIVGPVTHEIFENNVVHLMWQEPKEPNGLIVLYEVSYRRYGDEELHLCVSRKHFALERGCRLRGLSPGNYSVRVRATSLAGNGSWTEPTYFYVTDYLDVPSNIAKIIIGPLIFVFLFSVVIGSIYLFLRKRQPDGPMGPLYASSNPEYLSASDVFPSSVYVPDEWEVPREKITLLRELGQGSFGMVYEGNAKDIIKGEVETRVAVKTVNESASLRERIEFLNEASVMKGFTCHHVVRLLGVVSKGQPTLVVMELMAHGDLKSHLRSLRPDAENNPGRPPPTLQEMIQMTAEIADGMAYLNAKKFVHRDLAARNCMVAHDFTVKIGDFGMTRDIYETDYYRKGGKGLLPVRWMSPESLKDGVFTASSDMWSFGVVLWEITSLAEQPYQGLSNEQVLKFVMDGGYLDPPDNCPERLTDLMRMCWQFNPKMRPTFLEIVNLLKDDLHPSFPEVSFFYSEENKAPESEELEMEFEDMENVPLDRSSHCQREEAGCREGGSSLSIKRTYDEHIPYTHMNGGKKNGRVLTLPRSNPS
Description: Briefly, the liver was homogenized in the presence of proteinase inhibitors, solubilized with 1% Triton X-100, and centrifuged. The supernatant was allowed to pass through a wheat-germ agglutinin (WGA)-agarose column (Sigma). Adsorbed insulin receptor portion was eluted with 0.3M N-acetyl-D-glucose amine in 50 mM HEPES buffer, pH 7.4, containing 0.1% Triton X-100, 10% glycerol, and 0.15M NaCl.
(iv) Receptor Tyrosine Kinase Activity Measurement
In this assay insulin activates its own receptor to phosphorylate a random copolymer containing L-glutamic acid and L-tyrosine at 4:1 molar ratio [Poly(Glu4Tyr)]SEQ ID NO:1. The standard enzyme assay mixture (final volume 60 μl in 50 mM Hepes, pH 7.4-0.1% Triton X-100) contained WGA purified insulin receptor (5μg protein), 20 mM MgCl2, 2 mM MnCl2, 100 μM ATP and varying concentrations (from 1 ng/ml to 10 mg/ml) of insulin or insulin derivative. Following a 30 min preincubation at 22° C., the reaction was initiated by adding Poly(Glu4Tyr) SEQ ID NO:1 (final concentration 0.7 mg/ml), it proceeded for 20 min at 22° C. and was terminated by adding EDTA (20 mM). Phosphotyrosine content in PolyGlu4Tyr was quantitated by a radio-immunoassay procedure using specific monoclonal antibodies to phosphotyrosine (final dilution 1: 100,000) and ^125I-BSA-phosphotyrosine conjugate.

[4] = not given; remark: listed apart in the source
STZ-diabetic rats = assay: Single subcutaneous administration to STZ-diabetic rats (blood glucose, daily weight gain)
Description: Diabetes was induced by a single intravenous injection of a freshly prepared solution of streptozotocin (55 mg/kg body weight) in 0.1M citrate buffer (pH 4.5) according to Meyerovitch et al., 1987.
Blood glucose levels and daily weight gains were followed over a period of seven days.
Group C (n=5) received the vehicle only (2.0 ml of 20% DMSO). Blood glucose levels were determined daily.

chymotrypsin and trypsin = conditions: pH 7.4
Description: Chymotrypsin and trypsin (0.5% w/w, of each) was then added. At the indicated time points aliquots were withdrawn and subjected to analytical HPLC procedure.

[5] = assay type: physicochemical
Description: (i.e. at physiological pH and body temperature). At the indicated time points aliquots were withdrawn for determining the biological potency relative to native insulin. Biological activities were evaluated by Insulin receptor tyrosine kinase activation (a cell free assay as described in Biological Procedures above, section (iv)) and by stimulation of lipogenesis in intact rat adipocytes as described in Biological Procedures, […].

[6] = cited from earlier work
E. coli = assay type: cell-based; conditions: for pIC50: read-out: Concentration inhibiting 50% of bacterial growth; for Antimicrobial potency (%): relative to PMXB control
Description: At the indicated time points aliquots were withdrawn and analyzed for their potencies to arrest growth of E. coli, and bacterial growth was then evaluated by measuring turbidity at 700 nm.

CC1=C(C(=O)O)N2C(=O)[C@@H](NC(=O)[C@H](N)c3ccccc3)[C@H]2SC1 [native cephalexin, 7-(D-α-aminophenylacetamido)desacetoxycephalosporanic acid, reference compound]
Antimicrobial potency (%) (Staphylococcus aureus; after 1 day at pH 7.4, 37° C.): 100% | Antimicrobial potency (%) (Staphylococcus aureus; after 3 days at pH 7.4, 37° C.): 100% | Antimicrobial potency (%) (Staphylococcus aureus; after 6 days at pH 7.4, 37° C.): 100% | Antimicrobial potency (%) (Staphylococcus aureus; no incubation): 100%

(Sulfmoc)2-insulin: insulin carrying two (2-sulfo)Fmoc groups on amino groups, water soluble
Biologically active (%) (intact rat adipocytes; before incubation, assay not given): 0.5% | t½ of return to fully-active native insulin (increase in biological potency) (intact rat adipocytes; pH 8.5): 4-6 hours | Time to full reversion / hydrolysis to the native hormone, pH 7.4 (37° C., pH 7.4): 10 days | t½ of reversion, pH 7.4 (buffer, pH 7.4): 6 days | t½ of reversion, pH 8.5 (buffer, pH 8.5): 12-15 hours | Increase in rate of hydrolysis versus Fmoc moiety (sulfonic acid group at position 2): 2-3 fold | Period of hypoglycemia / reduced blood glucose (normal rats): 24 h | Recovery from hypoglycemia, t½ (normal rats): 14 h

Fmoc-hGH: human growth hormone modified with Fmoc-OSu
Conversion to hGH (%) ([1]; 1 day): 23% | Conversion to hGH (%) ([1]; 2 days): 62% | Conversion to hGH (%) ([1]; 6 days): 100% | Incubation time yielding fully active, native hGH, pH 8.5 [1]: about 6 days | Ability to displace iodinated hormone (%) (hGH receptor; after 1 day, pH 10.5, 37° C.): 25% | Ability to displace iodinated hormone (%) (hGH receptor; after 4 days, pH 10.5, 37° C.): 100% | Ability to displace iodinated hormone (%) (hGH receptor; no treatment): 15% | Incubation time yielding fully active, native hGH, pH 10.5 (hGH receptor; pH 10.5, 37° C.): four days

Gly^A1, Lys^B29-N-(Fmoc)2-insulin
Activity following incubation at pH 8.5, 37° C. (%), 9 hrs (intact rat adipocytes): 10% | Activity following incubation at pH 8.5, 37° C. (%), 20 hrs (intact rat adipocytes): 20% | Activity following incubation at pH 8.5, 37° C. (%), 45 hrs (intact rat adipocytes): 97% | Appearance in aqueous buffer (pH 7.4) [2]: cloudy | Biological potency following incubation (2 days, 37° C., pH 8.5) [3]: 93 | Biological potency (%) [3]: 2 ± 1% | Solubility in aqueous buffer (pH 7.4, mg/ml) [4]: ˜2 mg/ml

Gly^A1, Phe^B1, Lys^B29-N-(Fmoc)3-insulin
Delayed onset of antidiabetic action (STZ-diabetic rats; STZ rats, single s.c. 1 mg): approximately two days | Duration of antidiabetic action (STZ-diabetic rats; STZ rats, single s.c. 1 mg): four days | Daily weight gain (STZ-diabetic rats; STZ rats, single s.c. 1 mg, followed seven days): 1.43±0.14 g/rat/day | Circulating glucose level lower than in native insulin group (STZ-diabetic rats; single s.c. 1 mg, day two up to day six): 90 to 110 mg/dL | Appearance in aqueous buffer (pH 7.4) [2]: very cloudy | Resistance to proteolysis (chymotrypsin and trypsin): highly resistant to proteolysis | Lag period of activation ([5]; pH 7.4, 37° C.): six day lag period | Biological potency (%) ([3]; listed as N-(Fmoc)3-insulin Gly^A1, Lys^B29, Phe^B1): <1% | Biological potency (%) ([3]; listed as tri-N-Fmoc-insulin): < 1% | Solubility in aqueous buffer (pH 7.4, mg/ml) [4]: ˜0.2 mg/ml

Gly^A1, Phe^B1-N-(Fmoc)2-insulin
Activity following incubation at pH 8.5, 37° C. (%), 9 hrs (intact rat adipocytes): 18% | Activity following incubation at pH 8.5, 37° C. (%), 20 hrs (intact rat adipocytes): 40% | Activity following incubation at pH 8.5, 37° C. (%), 45 hrs (intact rat adipocytes): 100% | Appearance in aqueous buffer (pH 7.4) [2]: cloudy | Biological potency following incubation (2 days, 37° C., pH 8.5) [3]: 97 | Biological potency (%) [3]: 3 ± 1% | Solubility in aqueous buffer (pH 7.4, mg/ml) [4]: ˜2 mg/ml

Gly^A1-N-(Fmoc)1-insulin [Gly^A1-N-Fmoc-insulin]
Activity following incubation at pH 8.5, 37° C. (%), 9 hrs (intact rat adipocytes): 50% | Activity following incubation at pH 8.5, 37° C. (%), 20 hrs (intact rat adipocytes): 100% | Appearance in aqueous buffer (pH 7.4) [2]: nearly clear | Biological potency (%) [3]: 40 ± 2% | Solubility in aqueous buffer (pH 7.4, mg/ml) [4]: ˜3 mg/ml

Insulin lispro: human insulin analog with the sequence at B28 and B29 reversed
Potency versus human insulin ([6]; in vivo): equipotent to human insulin | Absorption from subcutaneous injection sites ([6]; versus human insulin): absorbed more quickly

Lys^B29-N-(Fmoc)1-insulin
Appearance in aqueous buffer (pH 7.4) [2]: nearly clear | t½ of activation (half maximal activation) ([5]; buffer, pH 7.4): 120 h | Biological potency following incubation (2 days, 37° C., pH 8.5) [3]: 94 | Biological potency (%) [3]: 78 ± 4% | Solubility in aqueous buffer (pH 7.4, mg/ml) [4]: ˜3 mg/ml

Phe^B1, Lys^B29-N-(Fmoc)2-insulin
Period of normoglycemia (STZ-diabetic rats; STZ rats, single s.c. 3 mg/rat): 4 days | Daily weight gain gram/rat (over the first three days) (STZ-diabetic rats; STZ rats, single s.c. 3 mg/rat, first three days): 11.5 ± 1.3 gram/rat | Effectiveness in lowering blood glucose levels (STZ-diabetic rats; STZ rats, single s.c. administration): as effective as the commercially available (insoluble) long-acting preparation | Activity following incubation at pH 8.5, 37° C. (%), 9 hrs (intact rat adipocytes): 10% | Activity following incubation at pH 8.5, 37° C. (%), 20 hrs (intact rat adipocytes): 20% | Activity following incubation at pH 8.5, 37° C. (%), 45 hrs (intact rat adipocytes): 98% | Appearance in aqueous buffer (pH 7.4) [2]: cloudy | Lag period of activation ([5]; pH 7.4, 37° C.): not seen | Start of conversion to the native hormone after incubation ([5]; pH 7.4, 37° C.): starts shortly (within hours) after incubation | Period of hypoglycemia / reduced blood glucose (normal rats): about 48 hours | Recovery from hypoglycemia, t½ (normal rats): 26 h | Biological potency (%) ([3]; Lys^B29-N-(Fmoc)2 insulin): 9% | Biological potency (%) ([3]; listed as N-(Fmoc)2-insulin Phe^B1, Lys^B29): 9 ± 2% | Solubility in aqueous buffer (pH 7.4, mg/ml) [4]: ˜2 mg/ml

Phe^B1-N-(Fmoc)1-insulin
Appearance in aqueous buffer (pH 7.4) [2]: nearly clear | Biological potency (%) [3]: 76 ± 4% | Solubility in aqueous buffer (pH 7.4, mg/ml) [4]: ˜3 mg/ml

Polymyxin-B [native PMXB, reference compound]
pIC50 (E. coli; 3 d, 37° C., pH 7.4): 7.26 | Antimicrobial potency (%) (E. coli; 3 d, 37° C., pH 7.4): 100% | pIC50 (E. coli; 3 d, 37° C., pH 8.5): 7.00 | Antimicrobial potency (%) (E. coli; 3 d, 37° C., pH 8.5): 100% | pIC50 (E. coli; 6 d, 37° C., pH 7.4): 6.64 | Antimicrobial potency (%) (E. coli; 6 d, 37° C., pH 7.4): 100% | pIC50 (E. coli; 6 d, 37° C., pH 8.5): 6.70 | Antimicrobial potency (%) (E. coli; 6 d, 37° C., pH 8.5): 100% | pIC50 (E. coli; no treatment): 7.30 | Antimicrobial potency (%) (E. coli; no treatment): 100%

di-9-(fluorenylmethoxycarbonyl)polymyxin B [(Fmoc)2-PMBX]
pIC50 (E. coli; 3 d, 37° C., pH 7.4): 6.64 and 6.46 | pIC50 (E. coli; 3 d, 37° C., pH 8.5): 6.90 | Antimicrobial potency (%) (E. coli; 3 d, 37° C., pH 8.5): 80% | pIC50 (E. coli; 6 d, 37° C., pH 8.5): 6.70 | Antimicrobial potency (%) (E. coli; 6 d, 37° C., pH 8.5): 100% | t½ of hydrolysis back to active PMXB, pH 7.4 (E. coli; buffer, pH 7.4): ~1 days | t½ of hydrolysis back to active PMXB, pH 8.5 (E. coli; buffer, pH 8.5): ~3 days | pIC50 (E. coli; no treatment): 5.30 | Antimicrobial potency (%) (E. coli; no treatment): ~1%

hGH: native human growth hormone (Biotechnology General)
Ability to displace iodinated hormone (%) (hGH receptor; no treatment): 100% | Stability under the conditions applied to Fmoc-hGH (hGH receptor; pH 10.5, 37° C., 4 days): ^(1)Displacement of iodinated hGH was carried out according to Gertler et al., 1984. Native hGH was fully stable under the conditions applied to Fmoc-hGH (pH 10.5, 37° C., 4 days).
